In brackets after ≈: the same amount, converted by molar mass. Several values for one entry are separate records, joined by “and”; a condition that tells them apart may be missing. Identical values can stand only once.
Legend:
[1] = Coagulation properties via ROTEM; details: at fully efficacious doses
blood pressure = experiment: Hemodynamic responses in the anesthetized rat; type: in vivo; details: for hemodynamic response profile: anesthetized rat, 8 or 16 mg/kg 10 minute IV infusion after heparin 50 U/kg; for hemodynamic liabilities (summary): rat, in vivo
Description: As a key safety issue for cationic compounds is reduction in blood pressure shortly after administration. To address this hemodynamic issue, a medicinal chemistry strategy with literature precedence of introducing carboxylic acid functionality was applied to the salicylamide series of compounds. […] Surgically prepared animals were purchased from Charles River Laboratories, Raleigh, N.C. Animals were anesthetized on the day of experiment with isoflurane (1.8-4%). Blood pressure and heart rate data were collected on a Grass Polygraph recorder. The test articles, vehicle or protamine dosing preparations were administered once to each rat by a 10 minute intravenous infusion three minutes following a single intravenous injection of heparin (50 U/kg). Each animal received a dose volume of 2.0 mL/kg. Blood pressure was recorded prior to treatment for approximately 1 minute and immediately following heparin, immediately following vehicle, test articles or protamine and at 5, 15, 30, and 60 minutes following dosing. The doses of test agent were either 8 mg/kg or 16 mg/kg. The differences in hemodynamic effect at 16 mg/kg were especially profound (FIG. 5).

[2] = Cytotoxicity colorimetric assay, HepG2; type: cell-based, human; parameters: Cytotoxicity HepG2, percent printed in parentheses after the concentration: concentration or dose not given beside the values; details: human, HepG2 cells, one hour in serum-free media
Summary of the method: (§1)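 HepG2 cells (3×10^4/well, MEM + 10% FBS) and NIH/3T3 cells (2×10^4/well, DMEM + 10% BCS) were exposed to compound for 1 h in serum-free medium. Viability read by tetrazolium-to-formazan bioreduction after return to serum medium; EC50 from a four-parameter logistic fit.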

HepG2 cells = experiment: Cytotoxicity colorimetric assay, HepG2; type: cell-based, human; parameters: Cytotoxicity HepG2, percent printed in parentheses after the concentration: concentration or dose not given beside the values; details: for Cytotoxicity HepG2 EC50: one hour in serum-free media
Summary of the method: as §1

enoxaparin [3] = experiment: FXa amidolytic assay (Example 10), enoxaparin; details: read-out: Enox FXa EC50; enoxaparin 0.1 ug/ml; human antithrombin, bovine Factor Xa
Description: (§2) Two μl of test agent are added (range between 0.01 and 23 ug/ml) and incubated for 5 minutes at 23° C. Bovine Factor Xa was added to a final concentration of 0.636 nkat/mL and incubated for a further 10 minutes at 23° C.

tinzaparin = experiment: FXa amidolytic assay (Example 10), tinzaparin; details: read-out: Tinzap FXa EC50; tinzaparin 0.1 ug/ml; human antithrombin, bovine Factor Xa
Description: as §2

fondaparinux [4] = experiment: In vivo neutralization of fondaparinux in the rat; details: for reduction of Factor Xa (anti-factor Xa) levels after fondaparinux: fondaparinux 0.5 mg/kg IV, test agent 2 and 5 mg/kg IV
Description: Compounds were selected to test fondaparinux neutralization in vivo. Rats were pre-treated with fondaparinux administered by IV injection at 0.5 mg/kg. The rats were then treated with a single IV injection of saline, protamine or the PMX compound. Blood was collected via the orbital sinus from three rats per group at the following time points: pre-dose, 1, 3, 10, 30 and 60 min. Plasma samples were prepared for analysis of anti-factor Xa activity using an AMEX Destiny Plus Coagulation Analyzer.

[5] = Cytotoxicity colorimetric assay, NIH/3T3; type: cell-based, mouse; details: mouse, NIH/3T3 cells, one hour in serum-free media
Summary of the method: as §1

NIH/3T3 cells = experiment: Cytotoxicity colorimetric assay, NIH/3T3; type: cell-based, mouse; details: for Cytotoxicity 3T3 EC50: one hour in serum-free media
Summary of the method: as §1

Unfractionated heparin = experiment: aPTT clotting assay, UFH 0.4 U/mL in plasma (Example 10); type: biochemical; details: unfractionated heparin 0.4 U/mL in plasma; aPTT clotting
Description: aPTT clotting Assay: Unfractionated heparin was mixed with plasma at a final concentration of 0.4 U/mL (or concentration which increases aPTT time to between 120 and 300 seconds). […] The ACL Elite Hemostasis analyzer (Beckman Coulter™) was used to add aPTT reagent (HemosIL SynthASil) to supplemented plasma. Clotting was initiated by addition of CaCl2 and time to clot was recorded.

enoxaparin [6] = experiment: In vivo neutralization of enoxaparin in the rat; details: for in vivo efficacy versus LMWH by anti-factor Xa activity (summary): compared with protamine; for neutralization of enoxaparin (aPTT and factor Xa assays, words): rat, enoxaparin 2 mg/kg IV
Description: Compounds were tested for their ability to neutralize enoxaparin coagulation inhibition in rats. Male Sprague-Dawley rats were used in this study (Charles River Laboratories). They were ten-weeks-old at the start of the study and their weights ranged from 319-362 g. Enoxaparin (2 mg/kg) was administered by IV injection to groups of six rats. After 3 min, saline, protamine or a test compound was administered by IV injection. Blood was collected before dosing with enoxaparin, and at 1, 3, 10, 30 and 60 min after dosing with the standard and test compounds. All treatments were dosed in a volume of 1 mL/kg. Blood was collected via the orbital sinus from three rats per group. At each time point, 1 mL of blood was collected from each animal into a single tube. The blood was analyzed using an AMEX Destiny Plus Coagulation Analyzer for activated partial thromboplastin time (APTT) and anti-Factor Xa (low-molecular weight).

[7] = test system: isolated human erythrocytes; experiment: in vitro; type: cell-based
Summary of the method: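 Pooled human red cells, washed and diluted from a 0.22% stock suspension in TBS pH 7.4, were shaken with two-fold dilutions (1000 to 0.48 µg/ml) for 1 h at 37 °C. Released hemoglobin in the supernatant was read at OD405. EC50 came from a four-parameter logistic fit, with melittin as positive control.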

enoxaparin [8] = experiment: Enoxaparin-extended bleeding times, rat tail transection model; type: in vivo; details: for neutralization of prolonged bleeding times: rat, enoxaparin 2 mg/kg IV
Description: Studies have now been done to examine effects on extended bleeding times caused by enoxaparin treatment. Male Sprague Dawley rats (Charles River) were administered 2 mg/kg enoxaparin by IV injection in the tail vein, followed 3 minutes later by test agent (IV, tail vein) at 2 and 5 mg/kg doses. Tails were then rapidly transected and bleeding time onto an absorbant pad was determined. Enoxaparin alone (no antagonist) extends bleeding time from 11 to 24 seconds.

fondaparinux [9] = experiment: FXa amidolytic assay (Example 10), fondaparinux
Description: as §2

UFH = experiment: FXa amidolytic assay (Example 10), UFH; details: read-out: Heparin FXa uM EC50; UFH 0.03 units/mL; human antithrombin, bovine Factor Xa
Description: as §2

SMILES | coagulation properties via ROTEM [1] | hemodynamic response profile (blood pressure) | hemodynamic liabilities (summary) (blood pressure) | EC50 at 1 h [2] [µg/mL] | Cytotoxicity HepG2 EC50 (HepG2 cells) [µg/mL] | EC50 (enoxaparin [3]) | reduction of Factor Xa (anti-factor Xa) levels after fondaparinux (fondaparinux [4]) | EC50 at 1 h [5] [µg/mL] | Cytotoxicity 3T3 EC50 (NIH/3T3 cells) [µg/mL] | in vivo efficacy versus LMWH by anti-factor Xa activity (summary) (enoxaparin [6]) | neutralization of enoxaparin (aPTT and factor Xa assays, words) (enoxaparin [6]) | hemolysis and cytotoxicity (summary) [7] | neutralization of prolonged bleeding times (enoxaparin [8]; test agent 5 mg/kg IV) | Potent LMWH-antagonists with superior anti-fondaparinux activity (summary) (fondaparinux [9]) | EC50 (UFH) | other results
COc1ccc(NC(=O)[C@H](CCCCN)NC(=O)c2cc(NC(=O)[C@H](CCCCN)NC(=O)c3cc(NC(=O)[C@H](CCCCN)NC(=O)c4cc(NC(=O)[C@@H](N)CCCCN)ccc4OC)ccc3OC)ccc2OC)cc1C(=O)N[C@@H](Cc1c[nH]c2ccccc12)C(=O)O [Compound 266] | normal coagulation properties at fully efficacious doses | superior to protamine | reduced hemodynamic liabilities | 534 (≈ 407 µM) | >1000 | 0.122 µM and 0.162 µM and 0.164 µM | effective at the higher 5 mg/kg dose | 838 (≈ 638 µM) | 848 | superior to protamine | completely neutralizes enoxaparin within minutes | non-hemolytic and low cytotoxicity | incomplete neutralization | superior anti-fondaparinux activity | 0.21 µM and 0.247 µM | EC50 (tinzaparin): 0.122 µM and 0.151 µM and 0.121 µM; EC50 (Unfractionated heparin): 2.44 µM and 1.84 µM and 3.48 µM; EC50 ([7]; Homo sapiens, Erythrocyte, 1 h, human RBC, 1 hour at 37° C., read-out: Hemolysis EC50): > 1000 µg/mL; EC50 (fondaparinux [9]; read-out: Fondap FXa EC50, fondaparinux 0.02 μg/mL, human antithrombin, bovine Factor Xa): 0.214 µM and 0.265 µM and 0.368 µM
COc1ccc(NC(=O)[C@@H](CCCNC(=N)N)NC(=O)c2cc(NC(=O)[C@@H](CCCNC(=N)N)NC(=O)c3cc(NC(=O)[C@@H](CCCNC(=N)N)NC(=O)c4cc(NC(=O)[C@H](N)CCCNC(=N)N)ccc4OC)ccc3OC)ccc2OCC(=O)O)cc1C(=O)N[C@H](Cc1c[nH]c2ccccc12)C(N)=O [Compound 305] | normal coagulation properties at fully efficacious doses | superior to protamine | reduced hemodynamic liabilities | 1000 (≈ 681 µM) | >1000 | 0.186 µM | effective in reducing Factor Xa activity | 1000 (≈ 681 µM) | >1000 | superior to protamine | marginally more efficacious than the 3-Arg derivative | non-hemolytic and low cytotoxicity |  | superior anti-fondaparinux activity | 0.343 µM | Cytotoxicity HepG2, percent printed in parentheses after the concentration (HepG2 cells; at the concentration given): 50%; in vivo efficacy versus fondaparinux (summary) (fondaparinux [4]; in vivo): in vivo efficacy versus fondaparinux; Cytotoxicity 3T3, percent printed in parentheses after the concentration (NIH/3T3 cells; at the concentration given): 50%; in vivo efficacy versus LMWH by bleeding time (summary) (enoxaparin [8]; compared with protamine): superior to protamine; neutralization of prolonged bleeding times (enoxaparin [8]; test agent 2 mg/kg IV): completely neutralized
COc1cc(OC)c(C(=O)N[C@H]2CC[C@H](NC(=O)c3cc(C(=O)NCCN(C)C)c(OCCCCCNC(=N)N)cc3OCCCCCNC(=N)N)CC2)cc1C(=O)N[C@H]1CC[C@H](NC(=O)c2cc(C(=O)NCCN(C)C)c(OCCCCCNC(=N)N)cc2OCCCCCNC(=N)N)CC1 [Compound B] | normal coagulation properties at fully efficacious doses |  | reduced hemodynamic liabilities |  |  |  | lack of effectiveness |  |  | superior to protamine |  | non-hemolytic and low cytotoxicity | not completely reverse | superior anti-fondaparinux activity |  | 
